By Ki is commonly meant a measure of affinity in units of concentration, obtained from inhibition or displacement.

A value given as a limit tells only on which side of the number the result lay.

The assay concerns the target T1, Cdc7 (BEV coexpressed huCDC7/DBF4) (Homo sapiens, UniProt O00311).
T1 construct: made in house; host or cells: BEV (baculovirus expression vector) co-expression; insect cells are implied but no cell line is named
The experiment in a line: Cdc7 enzyme inhibition assay ([33P]ATP, biotinylated peptide substrate, FlashPlate). The class given is biochemical. Particulars: Table 3; enzyme inhibition data (Ki). As for the experimental part:
Cdc7 (BEV coexpressed huCDC7/DBF4) is prepared internally. Cdc7 assays are conducted as follows with final concentrations as listed. […] Reactions are quenched after 1 hr by the addition of 90 μL stop buffer (50 mM EDTA, 2M NaCl). […] (Ki) for exemplary compounds.

T1 sequence (O00311 whole entry): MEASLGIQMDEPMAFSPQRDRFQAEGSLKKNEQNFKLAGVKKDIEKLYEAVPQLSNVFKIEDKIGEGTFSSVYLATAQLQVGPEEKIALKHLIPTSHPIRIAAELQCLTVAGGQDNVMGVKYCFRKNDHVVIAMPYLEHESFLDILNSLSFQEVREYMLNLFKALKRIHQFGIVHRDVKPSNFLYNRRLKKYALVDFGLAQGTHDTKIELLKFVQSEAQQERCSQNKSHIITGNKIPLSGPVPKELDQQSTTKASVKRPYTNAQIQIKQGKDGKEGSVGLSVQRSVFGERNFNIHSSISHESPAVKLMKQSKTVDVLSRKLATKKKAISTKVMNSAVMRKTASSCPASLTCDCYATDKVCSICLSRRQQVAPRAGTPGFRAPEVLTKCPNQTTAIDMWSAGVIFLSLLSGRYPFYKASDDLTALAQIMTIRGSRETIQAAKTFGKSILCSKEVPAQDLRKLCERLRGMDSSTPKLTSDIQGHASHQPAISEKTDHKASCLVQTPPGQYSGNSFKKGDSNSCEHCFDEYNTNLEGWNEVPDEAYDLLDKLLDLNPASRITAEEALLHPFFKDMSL
T1 sequence (Q9UBU7 whole entry partner): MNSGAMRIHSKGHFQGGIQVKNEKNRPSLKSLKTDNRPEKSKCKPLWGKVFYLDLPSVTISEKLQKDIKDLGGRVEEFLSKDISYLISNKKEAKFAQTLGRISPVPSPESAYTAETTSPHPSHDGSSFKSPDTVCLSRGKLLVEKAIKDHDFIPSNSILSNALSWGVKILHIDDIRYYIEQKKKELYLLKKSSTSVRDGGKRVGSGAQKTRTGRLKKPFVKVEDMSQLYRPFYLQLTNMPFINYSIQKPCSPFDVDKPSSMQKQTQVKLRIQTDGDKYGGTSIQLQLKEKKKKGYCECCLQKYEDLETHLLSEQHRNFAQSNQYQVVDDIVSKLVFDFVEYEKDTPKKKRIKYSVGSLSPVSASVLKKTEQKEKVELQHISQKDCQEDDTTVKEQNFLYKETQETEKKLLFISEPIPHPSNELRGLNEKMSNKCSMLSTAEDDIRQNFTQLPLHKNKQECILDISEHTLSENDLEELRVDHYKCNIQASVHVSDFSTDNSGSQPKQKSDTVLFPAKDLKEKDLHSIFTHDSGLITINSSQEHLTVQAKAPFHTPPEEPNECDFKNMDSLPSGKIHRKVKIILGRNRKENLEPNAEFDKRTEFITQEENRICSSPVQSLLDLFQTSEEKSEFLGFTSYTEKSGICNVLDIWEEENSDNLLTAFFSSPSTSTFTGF

Turning to `O=C(C1CC1)N1CCC(NC2CCC(Nc3cc(-c4c[nH]c5ncccc45)cc(Cl)n3)CC2)CC1` (centres unmarked) [Example 175, {4-[(4-{[6-chloro-4-(1H-pyrrolo[2,3-b]pyridin-3-yl)pyridin-2-yl]amino}cyclohexyl)amino]piperidin-1-yl}(cyclopropyl)methanone], the Ki is < 10 nM.

For the molecule `Cn1cc(-c2cnc3[nH]cc(-c4cc(Cl)nc(NC5CCCCC5)c4)c3c2)cn1` [Example 176, 6-chloro-N-cyclohexyl-4-[5-(1-methyl-1H-pyrazol-4-yl)-1H-pyrrolo[2,3-b]pyridin-3-yl]pyridin-2-amine], the Ki was < 10 nM. With `COc1cnc2[nH]cc(-c3cc(Cl)nc(NC4CCCCC4)c3)c2c1` [Example 178, 6-chloro-N-cyclohexyl-4-(5-methoxy-1H-pyrrolo[2,3-b]pyridin-3-yl)pyridin-2-amine] the figure was < 10 nM; with `NCCS(=O)(=O)N[C@H]1CC[C@H](Nc2cc(-c3c[nH]c4ncccc34)cc(Cl)n2)CC1` [Example 179, 2-amino-N-(trans-4-{[6-chloro-4-(1H-pyrrolo[2,3-b]pyridin-3-yl)pyridin-2-yl]amino}cyclohexyl)ethanesulfonamide], < 10 nM. Consider `Oc1cnc2[nH]cc(-c3cc(Cl)nc(NC4CCCCC4)c3)c2c1` [Example 180, 3-[2-chloro-6-(cyclohexylamino)pyridin-4-yl]-1H-pyrrolo[2,3-b]pyridin-5-ol], for which the Ki is < 10 nM.

As to `Clc1cc(-c2c[nH]c3ncccc23)cc(NC2CCC(C3CCCNC3)CC2)n1` (centres unmarked) [Example 181, 6-chloro-N-[4-(piperidin-3-yl)cyclohexyl]-4-(1H-pyrrolo[2,3-b]pyridin-3-yl)pyridin-2-amine], the Ki was < 10 nM. With `Clc1cc(-c2c[nH]c3ncccc23)cc(NC2CCC(C3CCN(C4CCC4)CC3)CC2)n1` (centres unmarked) [Example 182, 6-chloro-N-[4-(1-cyclobutylpiperidin-4-yl)cyclohexyl]-4-(1H-pyrrolo[2,3-b]pyridin-3-yl)pyridin-2-amine] the figure was < 10 nM; with `CS(=O)(=O)N1CCC(C2CCC(Nc3cc(-c4c[nH]c5ncccc45)cc(Cl)n3)CC2)CC1` (centres unmarked) [Example 183, 6-chloro-N-{4-[1-(methylsulfonyl)piperidin-4-yl]cyclohexyl}-4-(1H-pyrrolo[2,3-b]pyridin-3-yl)pyridin-2-amine], < 10 nM.

As for `CN1CCC(C2CCC(Nc3cc(-c4c[nH]c5ncccc45)cc(Cl)n3)CC2)CC1` (centres unmarked) [Example 184, 6-chloro-N-[4-(1-methylpiperidin-4-yl)cyclohexyl]-4-(1H-pyrrolo[2,3-b]pyridin-3-yl)pyridin-2-amine], the Ki is < 10 nM.

For the molecule `CN1CCC(C2CCC(N(C)c3cc(-c4c[nH]c5ncccc45)cc(Cl)n3)CC2)CC1` (centres unmarked) [Example 185, 6-chloro-N-methyl-N-[4-(1-methylpiperidin-4-yl)cyclohexyl]-4-(1H-pyrrolo[2,3-b]pyridin-3-yl)pyridin-2-amine], the Ki is < 10 nM. Consider `CS(=O)(=O)N1CCCC(C2CCC(Nc3cc(-c4c[nH]c5ncccc45)cc(Cl)n3)CC2)C1` (centres unmarked) [Example 186, 6-chloro-N-{4-[1-(methylsulfonyl)piperidin-3-yl]cyclohexyl}-4-(1H-pyrrolo[2,3-b]pyridin-3-yl)pyridin-2-amine], for which the inhibitory constant (Ki) is < 10 nM. On to `Clc1cc(-c2c[nH]c3ncc(-c4cnn(CCN5CCOCC5)c4)cc23)cc(NC2CCCCC2)n1` [Example 187, 6-chloro-N-cyclohexyl-4-(5-{1-[2-(morpholin-4-yl)ethyl]-1H-pyrazol-4-yl}-1H-pyrrolo[2,3-b]pyridin-3-yl)pyridin-2-amine], for which the Ki was < 10 nM. With `O=C(C1CC1)N1CCCC(C2CCC(Nc3cc(-c4c[nH]c5ncccc45)cc(Cl)n3)CC2)C1` (centres unmarked) [Example 188, [3-(4-{[6-chloro-4-(1H-pyrrolo[2,3-b]pyridin-3-yl)pyridin-2-yl]amino}cyclohexyl)piperidin-1-yl](cyclopropyl)methanone], the Ki was < 10 nM. As for `Clc1cc(-c2c[nH]c3ncccc23)cc(NC2CCC(C3CCCN(C4CCC4)C3)CC2)n1` (centres unmarked) [Example 189, 6-chloro-N-[4-(1-cyclobutylpiperidin-3-yl)cyclohexyl]-4-(1H-pyrrolo[2,3-b]pyridin-3-yl)pyridin-2-amine], the Ki was < 10 nM. As for `Clc1cc(-c2c[nH]c3ncccc23)cc(NC2CCC(C3CCNC3)CC2)n1` (centres unmarked) [Example 190, 6-chloro-N-[4-(pyrrolidin-3-yl)cyclohexyl]-4-(1H-pyrrolo[2,3-b]pyridin-3-yl)pyridin-2-amine], the inhibitory constant (Ki) was < 10 nM. In the case of `CN1CCC(N2CCC(Nc3cc(-c4c[nH]c5ncccc45)cc(Cl)n3)CC2)CC1` [Example 191, N-[6-chloro-4-(1H-pyrrolo[2,3-b]pyridin-3-yl)pyridin-2-yl]-1′-methyl-1,4′-bipiperidin-4-amine] it was < 10 nM; in that of `O=C(NCCS(=O)(=O)N[C@H]1CC[C@H](Nc2cc(-c3c[nH]c4ncccc34)cc(Cl)n2)CC1)c1ccccc1` [Example 193, N-{2-[(trans-4-{[6-chloro-4-(1H-pyrrolo[2,3-b]pyridin-3-yl)pyridin-2-yl]amino}cyclohexyl)sulfamoyl]ethyl}benzamide], < 10 nM; in that of `CS(=O)(=O)NCCS(=O)(=O)N[C@H]1CC[C@H](Nc2cc(-c3c[nH]c4ncccc34)cc(Cl)n2)CC1` [Example 194, N-(trans-4-{[6-chloro-4-(1H-pyrrolo[2,3-b]pyridin-3-yl)pyridin-2-yl]amino}cyclohexyl)-2-[(methylsulfonyl)amino]ethanesulfonamide], < 10 nM.

As to `Clc1cc(-c2c[nH]c3ncc(OCCN4CCOCC4)cc23)cc(NC2CCCCC2)n1` [Example 195, 6-chloro-N-cyclohexyl-4-{5-[2-(morpholin-4-yl)ethoxy]-1H-pyrrolo[2,3-b]pyridin-3-yl}pyridin-2-amine], the Ki is < 10 nM. In the case of `Cn1cncc1COc1cnc2[nH]cc(-c3cc(Cl)nc(NC4CCCCC4)c3)c2c1` [Example 196, 6-chloro-N-cyclohexyl-4-{5-[(1-methyl-1H-imidazol-5-yl)methoxy]-1H-pyrrolo[2,3-b]pyridin-3-yl}pyridin-2-amine] it was < 10 nM.

`CN1CCC(C2CCC(Nc3cc(-c4c[nH]c5ncccc45)cc(Cl)n3)CC2)C1` (centres unmarked) [Example 197, 6-chloro-N-[4-(1-methylpyrrolidin-3-yl)cyclohexyl]-4-(1H-pyrrolo[2,3-b]pyridin-3-yl)pyridin-2-amine]: the Ki was < 10 nM.

Take `Fc1ccc(CN2CCC(C3CCC(Nc4cc(-c5c[nH]c6ncccc56)cc(Cl)n4)CC3)C2)cc1` (centres unmarked) [Example 198, 6-chloro-N-{4-[1-(4-fluorobenzyl)pyrrolidin-3-yl]cyclohexyl}-4-(1H-pyrrolo[2,3-b]pyridin-3-yl)pyridin-2-amine]: the Ki was < 10 nM.

`CS(=O)(=O)N1CCC(C2CCC(Nc3cc(-c4c[nH]c5ncccc45)cc(Cl)n3)CC2)C1` (centres unmarked) [Example 199, 6-chloro-N-{4-[1-(methylsulfonyl)pyrrolidin-3-yl]cyclohexyl}-4-(1H-pyrrolo[2,3-b]pyridin-3-yl)pyridin-2-amine]: the inhibitory constant (Ki) was < 10 nM. In the case of `Clc1cc(-c2c[nH]c3ncccc23)cc(NC2CCN(C3CCC(NC4CCC4)CC3)CC2)n1` (centres unmarked) [Example 200, 6-chloro-N-{1-[4-(cyclobutylamino)cyclohexyl]piperidin-4-yl}-4-(1H-pyrrolo[2,3-b]pyridin-3-yl)pyridin-2-amine] it was < 10 nM; in that of `N#Cc1cnc2[nH]cc(-c3cc(Cl)nc(NC4CCCCC4)c3)c2c1` [Example 201, 3-[2-chloro-6-(cyclohexylamino)pyridin-4-yl]-1-1H-pyrrolo[2,3-b]pyridine-5-carbonitrile], 10 to 100 nM; in that of `O=C(N[C@H]1CC[C@H](Nc2cc(-c3c[nH]c4ncccc34)cc(Cl)n2)CC1)c1ccc(F)cc1F` [Example 202, N-(trans-4-{[6-chloro-4-(1H-pyrrolo[2,3-b]pyridin-3-yl)pyridin-2-yl]amino}cyclohexyl)-2,4-difluorobenzamide], < 10 nM. The molecule `O=C(N[C@H]1CC[C@H](Nc2cc(-c3c[nH]c4ncccc34)cc(Cl)n2)CC1)c1ccc(OC(F)(F)F)cc1` [Example 203, N-(trans-4-{[6-chloro-4-(1H-pyrrolo[2,3-b]pyridin-3-yl)pyridin-2-yl]-amino}cyclohexyl)-4-(trifluoromethoxy)benzamide] returned a Ki of 10 to 100 nM.

As for `Cc1cnc2[nH]cc(-c3cc(Cl)nc(NC4CCCCC4)c3)c2c1` [Example 204, 6-chloro-N-cyclohexyl-4-(5-methyl-1H-pyrrolo[2,3-b]pyridin-3-yl)pyridin-2-amine], the inhibition constant (Ki) was < 10 nM.

With `Clc1cc(-c2c[nH]c3ncccc23)cc(Nc2ccccc2)n1` [Example 205, 6-chloro-N-phenyl-4-(1H-pyrrolo[2,3-b]pyridin-3-yl)pyridin-2-amine], the Ki is < 10 nM. In the case of `COc1cc(N2CCC(N3CCN(C)CC3)CC2)ccc1Nc1cc(-c2c[nH]c3ncccc23)cc(Cl)n1` [Example 206, 6-chloro-N-{2-methoxy-4-[4-(4-methylpiperazin-1-yl)piperidin-1-yl]phenyl}-4-(1H-pyrrolo[2,3-b]pyridin-3-yl)pyridin-2-amine], the Ki is < 10 nM. As to `O=C(N[C@H]1CC[C@H](Nc2cc(-c3c[nH]c4ncccc34)cc(Cl)n2)CC1)C1CN(Cc2ccc(Cl)cc2)C1` [Example 207, 1-(4-chlorobenzyl)-N-(trans-4-{[6-chloro-4-(1H-pyrrolo[2,3-b]pyridin-3-yl)pyridin-2-yl]amino}cyclohexyl)azetidine-3-carboxamide], the Ki was < 10 nM.

Take `C=CCNC(=O)NCCS(=O)(=O)N[C@H]1CC[C@H](Nc2cc(-c3c[nH]c4ncccc34)cc(Cl)n2)CC1` [Example 208, N-(trans-4-{[6-chloro-4-(1H-pyrrolo[2,3-b]pyridin-3-yl)pyridin-2-yl]amino}cyclohexyl)-2-[(prop-2-en-1-ylcarbamoyl)amino}ethanesulfonamide]: the Ki is < 10 nM.

The values are drawn from patent US8435980B2 (AbbVie Inc., priority 2009, dated 2013).
